According to ChEMBL document CHEMBL1143409, “Efflux-related resistance to norfloxacin, dyes, and biocides in bloodstream isolates of Staphylococcus aureus” (2007):
Converted amounts (≈) assume the structure as drawn.

Legend:
Staphylococcus aureus [1] = assay: Inhibition of multidrug-resistant efflux pump in methicillin-resistant Staphylococcus aureus effluxing isolate assessed as fold reduction of Norfloxacin MIC at 10 ug/ml by microdilution method; type: functional
Staphylococcus aureus [2] = assay: Antimicrobial activity against methicillin-resistant Staphylococcus aureus effluxing isolate; type: functional
Staphylococcus aureus [3] = assay: Inhibition of multidrug-resistant efflux pump in methicillin-resistant Staphylococcus aureus effluxing isolate assessed as fold reduction of ethidium-bromide MIC at 10 ug/ml by microdilution method; type: functional
Staphylococcus aureus [4] = assay: Inhibition of multidrug-resistant efflux pump in methicillin-resistant Staphylococcus aureus effluxing isolate assessed as fold reduction of chlorehexidin MIC at 10 ug/ml by microdilution method; type: functional
Staphylococcus aureus [5] = assay: Inhibition of multidrug-resistant efflux pump in methicillin-resistant Staphylococcus aureus effluxing isolate assessed as fold reduction of acriflavine MIC at 10 ug/ml by microdilution method; type: functional
Staphylococcus aureus [6] = assay: Inhibition of multidrug-resistant efflux pump in methicillin-resistant Staphylococcus aureus effluxing isolate assessed as fold reduction of dequalinium MIC at 10 ug/ml by microdilution method; type: functional
Staphylococcus aureus [7] = assay: Inhibition of multidrug-resistant efflux pump in methicillin-resistant Staphylococcus aureus effluxing isolate assessed as fold reduction of citramide MIC at 10 ug/ml by microdilution method; type: functional, organism-based
Staphylococcus aureus [8] = assay: Inhibition of multidrug-resistant efflux pump in methicillin-resistant Staphylococcus aureus effluxing isolate assessed as fold reduction of tetraphenylphosphonium bromide MIC at 10 ug/ml by microdilution method; type: functional

CCn1cc(C(=O)O)c(=O)c2cc(F)c(N3CCNCC3)cc21 [NORFLOXACIN] was tested, and the “fold change (FC)” value (Staphylococcus aureus [1]) was 4, the MIC50 (Staphylococcus aureus [2]) was 12.5 µg/mL (≈ 39.1 µM) and the MIC90 (Staphylococcus aureus [2]) was over 100 µg/mL.
With CC[n+]1c(-c2ccccc2)c2cc(N)ccc2c2ccc(N)cc21.[Br-] [HOMIDIUM BROMIDE] the “fold change (FC)” value (Staphylococcus aureus [3]) was 8, the MIC50 (Staphylococcus aureus [2]) was 6.25 µg/mL and the MIC90 (Staphylococcus aureus [2]) was 25 µg/mL.
N=C(NCCCCCCNC(=N)NC(=N)Nc1ccc(Cl)cc1)NC(=N)Nc1ccc(Cl)cc1 [CHLORHEXIDINE] was tested, and the “fold change (FC)” value (Staphylococcus aureus [4]) was 8, the MIC50 (Staphylococcus aureus [2]) was 0.31 µg/mL (≈ 0.613 µM) and the MIC90 (Staphylococcus aureus [2]) was 0.63 µg/mL (≈ 1.25 µM).
In the case of C[n+]1c2cc(N)ccc2cc2ccc(N)cc21.[Cl-] [EUFLAVINE], the “fold change (FC)” value (Staphylococcus aureus [5]) is reported as 4, the MIC50 (Staphylococcus aureus [2]) is reported as 12.5 µg/mL and the MIC90 (Staphylococcus aureus [2]) is reported as 50 µg/mL.
Cc1cc(N)c2ccccc2[n+]1CCCCCCCCCC[n+]1c(C)cc(N)c2ccccc21.[Cl-].[Cl-] [DEQUALINIUM CHLORIDE] was tested, and the “fold change (FC)” value (Staphylococcus aureus [6]) was 4, the MIC50 (Staphylococcus aureus [2]) was 1.25 µg/mL and the MIC90 (Staphylococcus aureus [2]) was 5 µg/mL.
With CETRIMIDE the fold change (FC) (Staphylococcus aureus [7]) was 4, the MIC50 (Staphylococcus aureus [2]) was 0.63 µg/mL and the MIC90 (Staphylococcus aureus [2]) was 1.25 µg/mL.
In the case of [Br-].c1ccc([P+](c2ccccc2)(c2ccccc2)c2ccccc2)cc1 [TETRAPHENYLPHOSPHONIUM BROMIDE], the “fold change (FC)” value (Staphylococcus aureus [8]) is reported as 4, the MIC50 (Staphylococcus aureus [2]) is reported as 25 µg/mL and the MIC90 (Staphylococcus aureus [2]) is reported as 50 µg/mL.
